Values after ≈ are worked out from the molar mass of the structure shown. Values joined by “and” are separate entries in the source; they are usually repeats but may differ in a detail not shown here. Equal entries are not always repeated. Where two headings read alike, the source gives them in different places.

In the experiment the test system is Escherichia coli (E. coli) strain CFT073 ATCC 700928. The class given is cell-based. How it is done: In vitro antimicrobial activity of each compound was determined by measuring minimal inhibitor concentrations (MICs) using the broth micro-dilution technique as approved by the Clinical and Laboratory Standards Institute (CLSI) (Methods for Dilution Antimicrobial Susceptibility Tests for Bacteria that Grow Aerobically; Approved Standard—Eighth Edition. CLSI document M07-A8. Wayne, Pa.: Clinical and Laboratroy Standards; 2009). Antibacterial activity was measure against Escherichia coli (E. coli) strain CFT073 ATCC 700928, which is a clinically relevant Gram-negative strain. Cells were inoculated onto plates of Mueller Hinton Agar and grown at 37° C. for 16-18 hours. Inocula suspensions were prepared by scraping cells into 1 mL of testing media (Mueller Hinton II cation adjusted Broth supplemented with 0.002% v/v Tween-80) and diluting to a final OD600 nm of 0.01.
Test compounds were prepared in DMSO at a concentration of 100 uM The compounds were tested under several different dilution formats and the data are reported in Tables 6, 7 and 8. In protocol 1, the compound stocks were diluted into testing media at a concentration of 64 μg/ml and serial 2-fold dilutions were made in the same media, in 96-well U bottom microtiter dishes, for a total of 10 compound concentrations. In protocol 2, the compound stocks were diluted into testing media at a concentration of 4 μg/mL and serial 2-fold dilutions were made in the same media, in 96-well U bottom microtiter dishes, for a total of 10 compound concentrations. In protocol 3, compound stocks were diluted into testing media at a concentration of 0.5 μg/mL, with serial 2-fold dilutions conducted as described above. In protocol 4, compound stocks were diluted into testing media at a concentration of 0.13 μg/mL, with serial 2-fold dilutions conducted as described above. Inocula suspensions were added to the 2-fold serial dilutions of test compounds to a final density of OD OD600 nm of 0.0005 and incubated at 35° C. for 22 hours.

As to `CCCCCCCCCC[C@H]1OC(=O)CNC(=O)[C@H]([C@H](C)O)NC(=O)[C@H](CN)NC(=O)[C@H]([C@H](C)CC)NC(=O)C(CCC(F)(F)F)N(C)C(=O)[C@@H]1C` (single isomer, unassigned) [Example 17, 9-(aminomethyl)-19-decyl-6-(1-hydroxyethyl)-16,18-dimethyl-12-sec-butyl-15-(3,3,3-trifluoropropyl)-1-oxa-4,7,10,13,16-pentazacyclononadecane-2,5,8,11,14,17-hexone], where the note is “ATCC 700928, 22 h”, the MIC is 25 µM (≈ 18.8 µg/mL).

`CCCCCC[C@H]1OC(=O)CNC(=O)[C@H]([C@H](C)O)NC(=O)[C@H](CN)NC(=O)[C@H](C2CCC(F)(F)CC2)NC(=O)[C@H](CC(C)C)N(C)C(=O)[C@@H]1C` (single isomer, unassigned) [Example 52] displayed an MIC (ATCC 700928, 22 h) of 12 µM (≈ 8.6 µg/mL).

Turning to `CCCCCCCCCC[C@H]1OC(=O)CNC(=O)[C@H]([C@H](C)O)NC(=O)[C@H](CN)NC(=O)[C@H](C2CCC(F)(F)CC2)NC(=O)[C@H](CC(C)C)N(C)C(=O)[C@@H]1C` (single isomer, unassigned) [Example 53], the MIC (ATCC 700928, 22 h) was 25 µM (≈ 19.3 µg/mL).

`CCCCCC[C@H]1OC(=O)CNC(=O)[C@H]([C@H](C)O)NC(=O)[C@H](CN)NC(=O)C(C2CC3CCC2C3)NC(=O)[C@H](CCC)N(C)C(=O)[C@@H]1C` (single isomer, unassigned) [Example 69] had an MIC (ATCC 700928, 22 h) of 8.8 µM (≈ 5.97 µg/mL).

`CCC[C@H]1C(=O)N[C@@H](C2CCCCCC2)C(=O)N[C@@H](CN)C(=O)N[C@@H](COC2CC3(CC(N)C3)C2)C(=O)N[C@H](C)CO[C@H](CC2CC3(CCC3)C2)[C@@H](C)C(=O)N1C` (single isomer, unassigned; stereoisomer 1) [Example 166] returned an MIC (ATCC 700928, 22 h) of 1.1 µM (≈ 0.88 µg/mL).

For the setting “ATCC 700928, 22 h”, `CCC[C@H]1C(=O)N[C@@H](C2CCCCCC2)C(=O)N[C@@H](CN)C(=O)N[C@@H](COC2CC3(CC(N)C3)C2)C(=O)N[C@H](C)CO[C@H](CC2CC3(CCC3)C2)[C@@H](C)C(=O)N1C` (single isomer, unassigned; stereoisomer 2) [Example 170] displayed an MIC of 0.78 µM (≈ 0.624 µg/mL).

As for `CCCCCC[C@@H]1OC(=O)CNC(=O)[C@H](CNC(=O)C2CCNCC2)NC(=O)[C@H](CN)NC(=O)[C@H](C2CCCCC2)NC(=O)[C@H](CC(C)C)N(C)C(=O)[C@@H]1C` (stereo in doubt) [Example 155], the MIC (ATCC 700928, 22 h) is 18 µM (≈ 14 µg/mL).

`CCCCCCC1OC(=O)CNC(=O)[C@H](CNC(=O)Cn2ccnc2)NC(=O)[C@H](CN)NC(=O)[C@H](C2CCCCC2)NC(=O)[C@H](CC(C)C)N(C)C(=O)[C@@H]1C` (stereo in doubt) [Example 160, N-[[(6S,9S,12S,15S,18R,19R)-9-(Aminomethyl)-12-cyclohexyl-19-hexyl-15-isobutyl-16,18-dimethyl-2,5,8,11,14,17-hexaoxo-1-oxa-4,7,10,13,16-pentazacyclononadec-6-yl]methyl]-2-imidazol-1-yl-acetamide] came in with an MIC (ATCC 700928, 22 h) of 71 µM (≈ 55 µg/mL). Compared with the last compound, the MIC is about 3.9-fold higher.

In the case of `CCCCCCC1OC(=O)CNC(=O)[C@H](CNC(=O)C2CC3(CNC3)C2)NC(=O)[C@H](CN)NC(=O)[C@H](C2CCCCC2)NC(=O)[C@H](CC(C)C)N(C)C(=O)[C@@H]1C` (stereo in doubt) [Example 165, N-[[(6S,9S,12S,15S,18R,19R)-9-(Aminomethyl)-12-cyclohexyl-19-hexyl-15-isobutyl-16,18-dimethyl-2,5,8,11,14,17-hexaoxo-1-oxa-4,7,10,13,16-pentazacyclononadec-6-yl]methyl]-2-azaspiro[3.3]heptane-6-carboxamide], the MIC (ATCC 700928, 22 h) is 4.4 µM (≈ 3.47 µg/mL).

`CCCCCCCCCC[C@H]1OC(=O)CNC(=O)[C@H]([C@H](C)O)NC(=O)[C@H](CN)NC(=O)[C@H]([C@H](C)CC)NC(=O)[C@H](CC(C)C)N(C)C(=O)[C@@H]1C` [Example 1, (6S,9S,12S,15S,18R,19R)-9-(aminomethyl)-12-((R)-sec-butyl)-19-decyl-6-((S)-1-hydroxyethyl)-15-isobutyl-16,18-dimethyl-1-oxa-4,7,10,13,16-pentaazacyclononadecane-2,5,8,11,14,17-hexaone]: where the note is “ATCC 700928, 22 h”, the MIC came out at 3.1 µM (≈ 2.2 µg/mL).

Take `CCCCCCCCCC[C@H]1OC(=O)CNC(=O)[C@H]([C@H](C)O)NC(=O)[C@H](CN)NC(=O)[C@H]([C@H](C)CC)NC(=O)[C@H](CC2CC2)N(C)C(=O)[C@@H]1C` [Example 2, (6S,9S,12S,15S,18R,19R)-9-(aminomethyl)-12-((R)-sec-butyl)-15-(cyclopropylmethyl)-19-decyl-6-((S)-1-hydroxyethyl)-16,18-dimethyl-1-oxa-4,7,10,13,16-pentaazacyclononadecane-2,5,8,11,14,17-hexaone]: where the note is “ATCC 700928, 22 h”, the MIC was determined as 3.1 µM (≈ 2.2 µg/mL). This counts as single-digit micromolar.

For the compound `CCCCCCCCCC[C@H]1OC(=O)[C@H](C)NC(=O)[C@H]([C@H](C)O)NC(=O)[C@H](CN)NC(=O)[C@H]([C@H](C)CC)NC(=O)[C@H](CC(C)C)N(C)C(=O)[C@@H]1C` [Example 3, (3S,6S,9S,12S,15S,18R,19R)-9-(aminomethyl)-12-((R)-sec-butyl)-19-decyl-6-((S)-1-hydroxyethyl)-15-isobutyl-3,16,18-trimethyl-1-oxa-4,7,10,13,16-pentaazacyclononadecane-2,5,8,11,14,17-hexaone], the minimal inhibitory concentration (MIC) (ATCC 700928, 22 h) was 3.1 µM (≈ 2.25 µg/mL).

`CCCCCCCCCC[C@H]1OC(=O)[C@@H](C)NC(=O)[C@H]([C@H](C)O)NC(=O)[C@H](CO)NC(=O)[C@H]([C@@H](C)CC)NC(=O)[C@H](CC(C)C)N(C)C(=O)[C@@H]1C` [Example 4, (3R,6S,9S,12S,15S,18R,19R)-12-((S)-sec-butyl)-19-decyl-6-((S)-1-hydroxyethyl)-9-(hydroxymethyl)-15-isobutyl-3,16,18-trimethyl-1-oxa-4,7,10,13,16-pentaazacyclononadecane-2,5,8,11,14,17-hexaone] showed an MIC (ATCC 700928, 22 h) of 13 µM (≈ 9.44 µg/mL).

In the case of `CCCCCCCCCC[C@H]1OC(=O)CNC(=O)[C@H](CO)NC(=O)[C@H](CO)NC(=O)[C@H]([C@H](C)CC)NC(=O)[C@H](CC(C)C)N(C)C(=O)[C@@H]1C` [Example 5, (6S,9S,12S,15S,18R,19R)-12-((R)-sec-butyl)-19-decyl-6,9-bis(hydroxymethyl)-15-isobutyl-16,18-dimethyl-1-oxa-4,7,10,13,16-pentaazacyclononadecane-2,5,8,11,14,17-hexaone], for the setting “E. coli CFT073 ATCC 700928, Mueller Hinton II cation adjusted Broth with 0.002% v/v Tween-80, 35° C. for 22 hours, lowest concentration that completely prevented bacterial growth”, the MIC is 4.7 µM and 3.1 µM.

As to `CCCCCCCCCC[C@H]1OC(=O)CNC(=O)[C@H](CO)NC(=O)[C@H](CO)NC(=O)[C@H](C2CCCCC2)NC(=O)[C@H](CC(C)C)N(C)C(=O)[C@@H]1C` [Example 7, (6S,9S,12S,15S,18R,19R)-12-cyclohexyl-19-decyl-6,9-bis(hydroxymethyl)-15-isobutyl-16,18 dimethyl-1-oxa-4,7,10,13,16-pentazacyclononadecane-2,5,8,11,14,17-hexone], the MIC (ATCC 700928, 22 h) is 3.1 µM (≈ 2.24 µg/mL).

For `CCCCCCC[C@H]1OC(=O)CNC(=O)[C@H]([C@H](C)O)NC(=O)[C@H](CO)NC(=O)[C@H]([C@H](C)CC)NC(=O)[C@H](CC(C)C)N(C)C(=O)[C@@H]1CC` [Example 8, (6S,9S,12S,15S,18R,19R)-12-((R)-sec-Butyl)-18-ethyl-9-heptyl-6-((S)-1-hydroxyethyl)-9-(hydroxymethyl)-15-isobutyl-16-methyl-1-oxa-4,7,10,13,16-pentaazacyclononadecane-2,5,8,11,14,17-hexaone], the MIC (ATCC 700928, 22 h) stood at 25 µM (≈ 17.1 µg/mL).

Where the note is “ATCC 700928, 22 h”, `CCCCCC[C@H]1OC(=O)CNC(=O)[C@H]([C@H](C)O)NC(=O)[C@H](CO)NC(=O)[C@H]([C@H](C)CC)NC(=O)[C@H](CC(C)C)N(C)C(=O)[C@@H]1CCCc1ccc(C)cc1` [Example 9, (6S,9S,12S,15S,18R,19R)-12-((R)-sec-butyl)-19-hexyl-6-((S)-1-hydroxyethyl)-9-(hydroxymethyl)-15-isobutyl-16-methyl-18-(3-(p-tolyl)propyl)-1-oxa-4,7,10,13,16-pentaazacyclononadecane-2,5,8,11,14,17-hexaone] displayed an MIC of 6.3 µM (≈ 4.88 µg/mL).

`CCCCCCCCCC[C@H]1OC(=O)CNC(=O)[C@H](CCO)NC(=O)[C@H](CN)NC(=O)[C@H]([C@H](C)CC)NC(=O)[C@H](CC(C)C)N(C)C(=O)[C@@H]1C` [Example 10, (6S,9S,12S,15S,18R,19R)-9-(aminomethyl)-19-decyl-6-(2-hydroxyethyl)-15-isobutyl-16,18-dimethyl-12-[(1R)-1-methylpropyl]-1-oxa-4,7,10,13,16-pentazacyclononadecane-2,5,8,11,14,17-hexone] yielded a minimal inhibitory concentration (MIC) (ATCC 700928, 22 h) of 6.3 µM (≈ 4.48 µg/mL).

In turn, `CCCCCC[C@H]1OC(=O)CNC(=O)[C@H](CO)NC(=O)[C@H](CN)NC(=O)[C@H]([C@H](C)CC)NC(=O)[C@H](CC(C)C)N(C)C(=O)[C@@H]1C` [Example 11, (6S,9S,12S,15S,18R,19R)-9-(aminomethyl)-19-hexyl-6-(hydroxymethyl)-15-isobutyl-16,18-dimethyl-12-[(1R)-1-methylpropyl]-1-oxa-4,7,10,13,16-pentazacyclononadecane-2,5,8,11,14,17-hexone] returned an MIC (ATCC 700928, 22 h) of 25 µM (≈ 16 µg/mL).

In general, MIC refers to the smallest concentration in the dilution series that meets the test's criterion for growth inhibition. Read a low MIC as inhibition by little substance.

Values taken from patent publication US11279735B2, “Cyclic peptide antibiotics” (priority 2017, dated 2022).
